“And” between values parts separate entries of the source, which are not always exact repeats. Equal entries are not always repeated. Where two headings read alike, the source gives them in different places.
Key:
[1] = phase 1 plasma pharmacokinetics, noncompartmental; details: for AUCt: carboplatin AUC 6 mg/mL min IV day 3, last sampling 21 h
Procedure: Six cycles of therapy were planned.
Plasma samples were stored at −20 °C until shipment to AbbVie. […] Plasma concentrations of carboplatin were determined using an inductively coupled plasma mass spectrometry. Standard pharmacokinetic parameters were determined using non-compartmental methods.

[2] = test system: major cytochrome P450 enzymes; details: at therapeutic doses; cited from earlier work
[3] = in humans; cited from earlier work
[4] = parameters: method as in printed; details: ref not given; cited from earlier work
major drug transporters = details: at therapeutic doses; cited from earlier work
[5] = test system: patients with triple-negative breast cancer; details: veliparib and carboplatin plus standard neoadjuvant therapy; cited from earlier work
PARP activity in PBMCs = details: 50 mg, maintained for 24 h in 3 subjects; cited from earlier work
[6] = test system: patients with advanced or metastatic solid tumors; details: cited from earlier work
lung cancer tumor models = details: preclinical lung cancer tumor models; cited from earlier work
[7] = test system: patients with advanced or metastatic NSCLC; details: cited from earlier work
[8] = parameters: method as in printed; details: ref not given; cited from earlier work; remark: listed apart in the source
[9] = test system: Japanese patients with NSCLC; test: phase 1 anti-tumor response (RECIST version 1.1) of veliparib plus carboplatin and paclitaxel; format: in vivo, human
Procedure: A CT scan of the full chest and abdomen with images of the liver and adrenal glands was performed for all tumor assessments at screening (within 3 weeks prior to registration) and at the end of every 2 cycles (6 weeks). Tumor assessments were performed within 7 days of the scheduled date.

[10] = test system: patients with newly diagnosed ovarian cancer; parameters: method as in GOG 9923; details: with carboplatin, paclitaxel, and bevacizumab; study ongoing; ref GOG 9923; cited from earlier work
[11] = test system: PARP activity in tumor biopsies; details: cited from earlier work; for PARP inhibition in tumor biopsies, average: 50 mg
[12] = test system: patients with triple-negative breast cancer; details: with carboplatin and paclitaxel; cited from earlier work
[13] = plus carboplatin and paclitaxel
[14] = carboplatin AUC 6 mg/mL min IV day 3, all patients N = 12, mean ± SD
[15] = carboplatin AUC 6 mg/mL min IV day 3, with veliparib 40 mg BID n = 3, mean ± SD
[16] = carboplatin AUC 6 mg/mL min IV day 3, with veliparib 80 mg BID n = 3, mean ± SD
[17] = carboplatin AUC 6 mg/mL min IV day 3, with veliparib 120 mg (BID) n = 6, mean ± SD

Question: Which T max ([1]; human, in vivo, iv) does the source give for `CC(=O)O[C@H]1C(=O)[C@@]2(C)[C@H]([C@H](OC(=O)c3ccccc3)[C@]3(O)C[C@H](OC(=O)[C@H](O)[C@@H](NC(=O)c4ccccc4)c4ccccc4)C(C)=C1C3(C)C)[C@]1(OC(C)=O)CO[C@@H]1C[C@@H]2O` [Paclitaxel, reference compound] here?
Answer: Its T max is 3.0 ± 0.0 h.

Question: And the AUC(0-t) ([1]; human, in vivo, iv, 200 mg/m2, AUCt)?
Answer: The AUC(0-t) was 24800 ± 2860 ng·h/mL.

Question: And the AUC(0-inf) ([1]; human, in vivo, iv, 200 mg/m2, AUC∞)?
Answer: Its AUC(0-inf) is 25500 ± 2890 ng·h/mL.

Question: What about the Cmax ([1]; human, in vivo, iv, 200 mg/m2, C max) of the same molecule?
Answer: Its Cmax is 6840 ± 1200 ng/mL.

Question: And the Tmax ([1]; human, in vivo, iv, 200 mg/m2, T max)?
Answer: Its Tmax is 2.9 ± 0.3 h.

Question: And the Tmax ([1]; human, in vivo, iv, T max)?
Answer: The Tmax was 3.1 ± 0.2 h.

Question: What does the source list for `C[C@]1(c2nc3c(C(N)=O)cccc3[nH]2)CCCN1` [Veliparib, 2-[(R)-2-methylpyrrolidin-2-yl]-1H-benzimidazole-4-carboxamide]?
Answer: inhibition of major cytochrome P450 enzymes [2]: not an inhibitor; elimination [3]: primarily eliminated by renal excretion; permeability [4]: permeable; AUC0–8/dose ([1]; human, in vivo): 31.4 ± 6.69 (ng h/mL)/mg; AUC∞/dose ([1]; human, in vivo): 44.2 ± 11.3 (ng h/mL)/mg; C max/dose ([1]; human, in vivo): 7.06 ± 1.29 (ng/mL)/mg; AUC0–8/dose ([1]; human, in vivo, 40 mg): 32.2 ± 9.24 (ng h/mL)/mg; AUC∞/dose ([1]; human, in vivo, 40 mg): 46.0 ± 16.8 (ng h/mL)/mg; C max/dose ([1]; human, in vivo, 40 mg): 8.18 ± 1.19 (ng/mL)/mg; AUC(0-t) ([1]; human, in vivo, 40 mg, AUC0–8): 1290 ± 370 ng·h/mL; AUC(0-inf) ([1]; human, in vivo, 40 mg, AUC∞): 1840 ± 671 ng·h/mL; Cmax ([1]; human, in vivo, 40 mg, C max): 327 ± 47.7 ng/mL; Tmax ([1]; human, in vivo, 40 mg, T max): 2.5 ± 1.3 h; AUC0–8/dose ([1]; human, in vivo, 80 mg): 26.7 ± 2.46 (ng h/mL)/mg; AUC∞/dose ([1]; human, in vivo, 80 mg): 35.0 ± 3.33 (ng h/mL)/mg; C max/dose ([1]; human, in vivo, 80 mg): 6.01 ± 0.35 (ng/mL)/mg; AUC(0-t) ([1]; human, in vivo, 80 mg, AUC0–8): 2140 ± 197 ng·h/mL; AUC(0-inf) ([1]; human, in vivo, 80 mg, AUC∞): 2800 ± 266 ng·h/mL; Cmax ([1]; human, in vivo, 80 mg, C max): 481 ± 27.8 ng/mL; Tmax ([1]; human, in vivo, 80 mg, T max): 3.3 ± 1.2 h; AUC0–8/dose ([1]; human, in vivo, 120 mg): 33.3 ± 6.34 (ng h/mL)/mg; AUC∞/dose ([1]; human, in vivo, 120 mg): 48.0 ± 9.72 (ng h/mL)/mg; C max/dose ([1]; human, in vivo, 120 mg): 7.03 ± 1.27 (ng/mL)/mg; dose proportionality of Cmax and AUC ([1]; human, in vivo, 120 mg): approximately dose proportional; AUC(0-t) ([1]; human, in vivo, 120 mg, AUC0–8): 3990 ± 796 ng·h/mL; AUC(0-inf) ([1]; human, in vivo, 120 mg, AUC∞): 5760 ± 1170 ng·h/mL; Cmax ([1]; human, in vivo, 120 mg, C max): 844 ± 152 ng/mL; Tmax ([1]; human, in vivo, 120 mg, T max): 3 ± 1.1 h; pharmacokinetic profile, Japanese versus Western populations ([1]; in vivo): generally comparable; inhibition of major drug transporters (major drug transporters): not an inhibitor; estimated pathologic complete response rate [5]: 52%; inhibition of PARP activity in PBMCs (PARP activity in PBMCs): Complete inhibition; maximum dose of veliparib ([6]; for 7 days in addition to standard doses of carboplatin and paclitaxel): 120 mg BID; complete response (CR) ([6]; phase 1 dose-escalation study): 3%; complete response (CR), patients ([6]; phase 1 dose-escalation study): 2/68; partial response (PR) ([6]; phase 1 dose-escalation study): 16%; partial response (PR), patients ([6]; phase 1 dose-escalation study): 11/68; stable disease ([6]; phase 1 dose-escalation study): 51%; stable disease, patients ([6]; phase 1 dose-escalation study): 35/68; RPTD ([6]; with standard doses of carboplatin and paclitaxel): 100 mg BID; effect on platinum-based chemotherapy (lung cancer tumor models): potentiates the effect of platinum-based chemotherapy; Overall survival (OS) [7, 13]: 11.1 months; median progression-free survival (PFS) [7, 13]: 5.8 months; HR (PFS) ([7]; veliparib versus placebo, each plus carboplatin and paclitaxel): 0.71; solubility [8]: highly soluble; patients who developed progressive disease (PD) ([9]; 80 mg BID): One; median PFS ([9]; all dose levels): 92 days; patients who achieved PR at the first CT scan ([9]; all dose levels): 3; patients who achieved a PR ([9]; all dose levels, 11 patients): Six; overall response rate ([9]; efficacy population, 11 patients): 55%; dose cleared [10]: ≥ 150 mg BID; PARP inhibition in tumor biopsies, average ([11]; 3–6 h after dosing (N = 3)): 75%; PARP inhibition in tumor biopsies, average ([11]; 24 h after dosing (N = 3)): 74%; inhibition of PARP activity in tumor biopsies ([11]; single dose of 25 mg, 3–6 h after dosing, 3 subjects (one value each)): 92% and 95% and 100%; dose cleared [12]: up to 200 mg BID

Question: Which results are given for `N.N.O=C([O-])C1(C(=O)[O-])CCC1.[Pt+2]` [Carboplatin, reference compound]?
Answer: AUCt ([1]; all patients N = 12, mean ± SD): 92500 ± 6540 ng·h/mL; AUCt ([1]; with veliparib 40 mg BID n = 3, mean ± SD): 94100 ± 9910 ng·h/mL; AUCt ([1]; with veliparib 80 mg BID n = 3, mean ± SD): 95100 ± 5830 ng·h/mL; AUCt ([1]; with veliparib 120 mg (BID) n = 6, mean ± SD): 90300 ± 5450 ng·h/mL; AUC∞ [1, 14]: 103000 ± 7670 ng·h/mL; C max [1, 14]: 22600 ± 2250 ng/mL; T max [1, 14]: 1.0 ± 0.0 h; AUC∞ [1, 15]: 105000 ± 12300 ng·h/mL; C max [1, 15]: 22300 ± 2370 ng/mL; T max [1, 15]: 1.0 ± 0.0 h; AUC∞ [1, 16]: 105000 ± 7140 ng·h/mL; C max [1, 16]: 24300 ± 1160 ng/mL; T max [1, 16]: 1.0 ± 0.0 h; AUC∞ [1, 17]: 100000 ± 5730 ng·h/mL; C max [1, 17]: 22000 ± 2450 ng/mL; T max [1, 17]: 1.0 ± 0.0 h; pharmacokinetics when co-administered with 40, 80, or 120 mg veliparib BID ([1]; day 3 of cycle 1): comparable
